Read-outs that look alike come from different tables or passages of the source.
Tests used:
Test in all cases: Kinase panel profiling at 1 µmol/L (MSA or IMAP), percentage inhibition
Format in all cases: biochemical
[1] = target: panel of 255 wild-type kinases (Homo sapiens, UniProt O00311); details: read-out: %-inhibition CDC7/ASK
[2] = target: panel of 255 wild-type kinases (Homo sapiens, UniProt O75676); details: read-out: %-inhibition, MSK2
[3] = target: panel of 255 wild-type kinases (Homo sapiens, UniProt P04626); details: read-out: %-inhibition at 1 µmol/L, HER2
[4] = target: panel of 255 wild-type kinases (Homo sapiens, UniProt P04629); details: read-out: %-inhibition at 1 µmol/L, TRKA
[5] = target: panel of 255 wild-type kinases (Homo sapiens, UniProt P06239); details: read-out: %-inhibition at 1 µmol/L, LCK
[6] = target: panel of 255 wild-type kinases (Homo sapiens, UniProt P07949); details: read-out: %-inhibition at 1 µmol/L, RET
[7] = target: panel of 255 wild-type kinases (Homo sapiens, UniProt P21802); details: read-out: %-inhibition at 1 µmol/L, FGFR2
[8] = target: panel of 255 wild-type kinases (Homo sapiens, UniProt P50613); details: read-out: %-inhibition CDK7/CycH/MAT1
[9] = target: panel of 255 wild-type kinases (Homo sapiens, UniProt P54756); details: read-out: %-inhibition at 1 µmol/L, EPHA5
[10] = target: T1, panel of 255 wild-type kinases (Homo sapiens, UniProt Q13470); details: read-out: %-inhibition at 1 µmol/L, TNK1
T1 sequence (Q13470 1-666): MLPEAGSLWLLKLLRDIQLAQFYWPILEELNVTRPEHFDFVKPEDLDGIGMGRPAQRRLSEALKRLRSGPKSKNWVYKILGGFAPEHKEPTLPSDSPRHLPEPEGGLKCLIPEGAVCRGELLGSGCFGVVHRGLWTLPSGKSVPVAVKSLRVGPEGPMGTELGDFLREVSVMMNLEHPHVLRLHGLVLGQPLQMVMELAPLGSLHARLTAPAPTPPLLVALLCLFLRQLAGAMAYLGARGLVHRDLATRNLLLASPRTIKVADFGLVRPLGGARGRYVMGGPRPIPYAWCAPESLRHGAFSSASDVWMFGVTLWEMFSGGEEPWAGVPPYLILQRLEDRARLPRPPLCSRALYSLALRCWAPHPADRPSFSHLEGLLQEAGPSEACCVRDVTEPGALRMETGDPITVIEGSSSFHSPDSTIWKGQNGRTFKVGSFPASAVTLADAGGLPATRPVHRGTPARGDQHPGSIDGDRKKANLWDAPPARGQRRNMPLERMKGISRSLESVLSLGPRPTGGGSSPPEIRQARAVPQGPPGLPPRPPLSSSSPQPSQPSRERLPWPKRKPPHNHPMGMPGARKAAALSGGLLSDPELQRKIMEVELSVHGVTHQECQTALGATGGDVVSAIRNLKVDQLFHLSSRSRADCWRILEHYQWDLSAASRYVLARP

[11] = target: panel of 255 wild-type kinases (Homo sapiens, UniProt Q15303); details: read-out: %-inhibition at 1 µmol/L, HER4
[12] = target: T2, panel of 255 wild-type kinases (Homo sapiens, UniProt Q9UHD2); details: read-out: %-inhibition at 1 µmol/L, TBK1
T2 sequence (Q9UHD2 1-729): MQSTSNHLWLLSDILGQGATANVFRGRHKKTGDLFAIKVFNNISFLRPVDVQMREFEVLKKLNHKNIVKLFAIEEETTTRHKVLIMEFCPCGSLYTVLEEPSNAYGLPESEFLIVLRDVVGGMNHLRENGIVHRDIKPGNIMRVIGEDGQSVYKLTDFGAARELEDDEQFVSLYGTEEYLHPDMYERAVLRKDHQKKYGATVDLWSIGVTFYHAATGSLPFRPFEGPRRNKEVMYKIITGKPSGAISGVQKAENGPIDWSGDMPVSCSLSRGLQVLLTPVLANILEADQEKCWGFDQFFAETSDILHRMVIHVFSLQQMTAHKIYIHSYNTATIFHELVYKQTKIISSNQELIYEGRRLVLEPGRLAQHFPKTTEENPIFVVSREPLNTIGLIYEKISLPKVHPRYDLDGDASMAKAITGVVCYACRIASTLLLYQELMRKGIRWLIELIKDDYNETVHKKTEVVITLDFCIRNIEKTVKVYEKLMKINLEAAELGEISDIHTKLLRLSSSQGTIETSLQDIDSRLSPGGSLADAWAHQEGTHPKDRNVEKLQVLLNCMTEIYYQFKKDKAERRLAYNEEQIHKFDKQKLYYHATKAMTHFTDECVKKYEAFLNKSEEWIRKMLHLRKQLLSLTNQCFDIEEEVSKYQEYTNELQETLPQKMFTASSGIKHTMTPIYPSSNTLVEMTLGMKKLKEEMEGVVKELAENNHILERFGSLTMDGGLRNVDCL

[13] = CDC7/ASK kinase assay, 1 µmol/L single concentration
[14] = MSK2, 1 µmol/L single concentration
[15] = kinase HER2, 1 µmol/L single concentration
[16] = kinase TRKA, 1 µmol/L single concentration
[17] = kinase LCK, 1 µmol/L single concentration
[18] = kinase RET, 1 µmol/L single concentration
[19] = kinase FGFR2, 1 µmol/L single concentration
[20] = CDK7/CycH/MAT1 kinase assay, 1 µmol/L single concentration
[21] = kinase EPHA5, 1 µmol/L single concentration
[22] = kinase TNK1, 1 µmol/L single concentration
[23] = kinase HER4, 1 µmol/L single concentration
[24] = kinase TBK1, 1 µmol/L single concentration

Structure (SMILES)	inhibition at 1 µM [1, 13] [%]	inhibition at 1 µM [2, 14] [%]	inhibition at 1 µM [3, 15] [%]	inhibition at 1 µM [4, 16] [%]	inhibition at 1 µM [5, 17] [%]	inhibition at 1 µM [6, 18] [%]	inhibition at 1 µM [7, 19] [%]	inhibition at 1 µM [8, 20] [%]	inhibition at 1 µM [9, 21] [%]	inhibition at 1 µM [10, 22] [%]	inhibition at 1 µM [11, 23] [%]	inhibition at 1 µM [12, 24] [%]	also measured
Cc1nc(NC(=O)N2CCC[C@H]2C(N)=O)sc1-c1ccnc(C(C)(C)C(F)(F)F)c1 [alpelisib]	-0.499	0.0558	19	6.61	5	1.62	7	-4	0.272	-4.23	2	-2.72	
Cn1cc(-c2cc3c(N4CCN(c5ncc([C@@](C)(N)c6ccc(F)cc6)cn5)CC4)ncnn3c2)cn1 [avapritinib]	0.0396	5	12	65	92	96	62	0.833	41	19	25	-1.13	
Cn1cnc2c(F)c(Nc3ccc(Br)cc3F)c(C(=O)NOCCO)cc21 [binimetinib]	-0.214	-3.65	1.43	-5	-0.655	-6	4.56	-5	-2.36	-8	11	0.416	
CNC(=O)c1ccc(-c2cnc3ncc(Cc4ccc5ncccc5c4)n3n2)cc1F [capmatinib]													inhibition at 1 µM [1]: -1.4%; inhibition at 1 µM [2]: 1.25%; inhibition at 1 µM [3]: 9%; inhibition at 1 µM [4]: 39%; inhibition at 1 µM [5]: 4.23%; inhibition at 1 µM [6]: 11%; inhibition at 1 µM [7]: 7%; inhibition at 1 µM [8]: -0.376%; inhibition at 1 µM [9]: -13%; inhibition at 1 µM [10]: -11%; inhibition at 1 µM [11]: 21%; inhibition at 1 µM [12]: -2.83%
COc1cc2ncnc(Nc3ccc(F)c(Cl)c3)c2cc1NC(=O)/C=C/CN1CCCCC1 [dacomitinib]	0.799	6	100	6	93	40	16	3.35	34	35	103	17	
C[C@H](Nc1ncnc2nc[nH]c12)c1cc2cccc(Cl)c2c(=O)n1-c1ccccc1 [duvelisib]	0.486	-1.39	19	9	7	8	5	-5.41	0.787	-2.72	-0.702	-2.46	
COC(=O)N[C@@H](C)CNc1nccc(-c2cn(C(C)C)nc2-c2cc(Cl)cc(NS(C)(=O)=O)c2F)n1 [encorafenib]	-4.28	-4	4.47	-2.7	1.39	-10	4	-6.5	-2.32	-3.4	14	1.21	
CN1CCN(c2ccc(C(=O)Nc3n[nH]c4ccc(Cc5cc(F)cc(F)c5)cc34)c(NC3CCOCC3)c2)CC1 [entrectinib]	0.952	2.7	22				97	27	53	99	32	8	
CCc1nc(C(N)=O)c(Nc2ccc(N3CCC(N4CCN(C)CC4)CC3)c(OC)c2)nc1NC1CCOCC1 [gilteritinib]	3	6	15	100	97	100	61		52	97	83	24	inhibition at 1 µM [8]: 31%
CCN1CCN(c2ccc(Nc3cc(N(C)C(=O)Nc4c(Cl)c(OC)cc(OC)c4Cl)ncn3)cc2)CC1 [infigratinib]	-2	-0.703	4.73	27	91			9	-8	21	26	-4	
C[C@H]1Oc2cc(cnc2N)-c2c(nn(C)c2C#N)CN(C)C(=O)c2ccc(F)cc21 [lorlatinib]	-2	-3.24	21		24	10	5.32		38	97	11	-1.23	
CCN1C(=O)N(c2c(F)c(OC)cc(OC)c2F)Cc2cnc3[nH]c(CN4CCOCC4)cc3c21 [pemigatinib]	-3.54	-3.61	-4	14	17	55		-12	-2	5	5	0	

Source: PMC9516332 (Frontiers in Oncology, 2022)
